{
  "source": "patent US9045505B2",
  "about": "“Nitric oxide donors” (University of Otago, priority 2006, dated 2015)",
  "key": {"[1]": {"test_system": "rat liver mitochondria", "experiment": "Membrane potential-dependent uptake into isolated mitochondria (TPP-selective electrode)", "assay_type": "biochemical", "details": "energized with 10 mM succinate, reversed by FCCP", "protocol": "FIG. 8 is a trace showing the uptake of MitoSNAP and MitoNAP by energized mitochondria measured using an ion-selective electrode. For (a) and (b) mitochondria (2 mg protein/ml) were incubated in KCl buffer supplemented with rotenone in a stirred 3 ml chamber thermostatted at 37° C. and shielded from ambient light. An electrode selective for the TPP cation was inserted and calibrated by five sequential 1 μM additions of MitoNAP (a) or MitoSNAP (b). Succinate (10 mM) was then added to energize the mitochondria, followed by the uncoupler FCCP (0.5 μM). Rapid uptake of MitoNAP by energized mitochondria was observed and this was reversed by abolishing the membrane potential with the uncoupler FCCP (a). Energised mitochondria also rapidly accumulated MitoSNAP (b). However, in contrast to MitoNAP, uncoupling apparently led to only partial release of the accumulated MitoSNAP (b). This apparent incomplete release of MitoSNAP on uncoupling is presumably because MitoSNAP is converted to MitoNAP within mitochondria and this generates a different response from the electrode.\nMitochondrial incubations were usually in KCl buffer (120 mM KCl, 10 mM HEPES, 1 mM EGTA, 100 μM N,N-bis(2-bis[carboxymethyl]aminoethyl) glycine (DTPA) and 10 μM neocuproine, pH 7.2) with 10 mM succinate and 4 μg/ml rotenone in the dark at 37° C., unless stated otherwise. An electrode selective for the TPP moiety of MitoSNAP and MitoNAP was made and used as described previously (Asin-Cayuela, J., Manas, A. R., James, A. M., Smith, R. A. & Murphy, M. P. Fine-tuning the hydrophobicity of a mitochondria-targeted antioxidant. FEBS Letts. 571, 9-16 (2004)). Respiration rates were measured in a Clark type O2 electrode (Rank Brothers, UK). To measure GSH and GSSG, mitochondria (1 mg protein/ml) were incubated with 0-10 μM MitoSNO1 or MitoNAP for 10 min, pelleted by centrifugation and the GSH and GSSG contents assessed by the recycling assay (Scarlett, J. L., Packer, M. A., Porteous, C. M. & Murphy, M. P. Alterations to glutathione and nicotinamide nucleotides during the mitochondrial permeability transition induced by peroxynitrite. Biochem. Pharmacol. 52, 1047-1055 (1996)). The measurement of exposed mitochondrial protein thiols is described below.\nRat liver mitochondria (1 mg protein/ml) in KCl buffer was incubated at 37° C. with 5 μM MitoSNO. 1 μM additions of MitoSNO were made sequentially before addition of 10 mM succinate. 200 nM FCCP was then added to uncouple the mitochondria. The concentrations of O2 and MitoSNO in solution were measured simultaneously using a Clark-type O2 electrode in combination with an ion-selective electrode for triphenylphosphonium cation (TPP^+). […] This can be seen in FIG. 3.\nWhen succinate was added, the mitochondria started respiring and set up a Δψ, which caused a decrease in the MitoSNO concentration, as detected by the ion-selective electrode (FIG. 3). When the mitochondria were uncoupled by FCCP, a concomitant increase in the concentration of MitoSNO, or its derivatives, in the medium was detected by the ion-selective electrode. The amount of MitoSNO taken up into the mitochondria from the trace in FIG. 3 corresponds to ˜2.5 μM of the initial external concentration of 5 μM. Therefore 7.5 nmol MitoSNO have been taken up into 3 mg protein, and as the mitochondrial volume is ˜0.5 μl/mg protein (Brown, G. C. and Brand, M. D. Biochem J., 1985, 225, 399-405), the concentration of MitoSNO within mitochondria is ˜5 mM. This represents a 2000 fold concentration relative to the 2.5 μM present in the external medium, and is consistent with a Nernstian uptake of MitoSNO."}, "[2]": {"experiment": "Reaction with GSH and half-life in the cytosol", "assay_type": "physicochemical", "details": "cytosol (estimated) with 5 mM GSH; physiological GSH concentration of 5 mM", "protocol": "The uptake of alkylTPP molecules into mitochondria within cells is rapid, equilibrating within 5-10 min (Ross, M. F. et al. Rapid and extensive uptake and activation of hydrophobic triphenylphosphonium cations within cells. Biochem. J. 411, 633-645 (2008)), and the rate limiting step is passage across the plasma membrane with rapid subsequent uptake into mitochondria (Ross, M. F. et al. Rapid and extensive uptake and activation of hydrophobic triphenylphosphonium cations within cells. Biochem. J. 411, 633-645 (2008) and Smith, R. A., Kelso, G. F., James, A. M. & Murphy, M. P. Targeting coenzyme Q derivatives to mitochondria. Meth. Enzymol. 382, 45-67 (2004)). Consequently, once through the plasma membrane, MitoSNAP should remain in the cytosol for a very short time before uptake into mitochondria. The rate of reaction of GSH with SNAP is 5.4 M^−1.s^−1 (Hogg, N. The kinetics of S-transnitrosation-a reversible second-order reaction. Anal. Biochem. 272, 257-62 (1999)). While other pathways of MitoSNAP decay in the cytosol may also contribute, GSH is likely to be the major one and at a physiological GSH concentration of 5 mM the half-life for MitoSNAP in the cytosol should be ˜25 s, giving plenty of time for MitoSNAP uptake into mitochondria. […]"}},
  "data": [
    {"smiles": "CC(=O)NC(C(=O)NCCCCC[P+](c1ccccc1)(c1ccccc1)c1ccccc1)C(C)(C)SN=O.CS(=O)(=O)[O-]", "note": "(centres unmarked) [MitoSNAP, [5-(2-acetylamino-3-methyl-3-nitrosothio-butyrylamino)-penty1]-triphenylphosphonium methanesulfonate]", "values": [
      {"measurement": "uptake by isolated mitochondria", "setting": "[1]", "result": "significant Δψ-dependent uptake"},
      {"measurement": "half-life", "setting": "[2]", "result": "~0.417", "unit": "min"}
    ]}
  ]
}
